{"source": "paper PMC10247784", "about": "“Physiological activation of human and mouse bitter taste receptors by bile acids” (Communications Biology, 2023)", "origin": "cited, not measured here", "system": "T2R02 of Latimeria chalumnae", "set-up": "method as in PMID 33355666", "details": "cited from earlier work"}
{"smiles": "C[C@H](CCC(=O)O)[C@H]1CC[C@H]2[C@@H]3CC[C@@H]4C[C@H](O)CC[C@]4(C)[C@H]3C[C@H](O)[C@]12C", "note": "[Deoxycholic Acid, deoxycholic acid]", "values": [{"measurement": "Activation of T2R02", "result": "activate"}]}
{"smiles": "C[C@H](CCC(=O)O)[C@H]1CC[C@H]2[C@@H]3[C@H](O)C[C@@H]4C[C@H](O)CC[C@]4(C)[C@H]3CC[C@]12C", "note": "[Chenodeoxycholic Acid, chenodeoxycholic acid]", "values": [{"measurement": "Activation of T2R02", "result": "activate"}]}
{"smiles": "C[C@H](CCC(=O)NCCS(=O)(=O)O)[C@H]1CC[C@H]2[C@@H]3CC[C@@H]4C[C@H](O)CC[C@]4(C)[C@H]3CC[C@]12C", "note": "[Taurolithocholic Acid, taurolithocholic acid]", "values": [{"measurement": "Activation of T2R02", "result": "activate"}]}
{"smiles": "C[C@H](CCC(=O)NCC(=O)O)[C@H]1CC[C@H]2[C@@H]3[C@H](O)C[C@@H]4C[C@H](O)CC[C@]4(C)[C@H]3C[C@H](O)[C@]12C", "note": "[Glycocholic Acid, glycocholic acid]", "values": [{"measurement": "Activation of T2R02", "result": "activate"}]}
